Reference: paper PMC7559231, “Drug-induced cholestasis assay in primary hepatocytes” (MethodsX, 2020)
Read-outs that look alike come from different tables or passages of the source.

Legend:
[1] = test system: sandwich-cultured human hepatocytes; settings: SCHH, ref [6],[7], cited from earlier work; for DICI 24 h Mean: 24 h exposure; for DICI 48 h Mean: 48 h exposure
[2] = parameters: method as in per compound in column References of Table 3 ([3], [24]-[44]); settings: mean total peak plasma concentration in humans; ref per compound in Table 3 ([3], [24]-[44]); cited from earlier work
[3] = test system: sandwich-cultured human hepatocytes; test: Drug-induced cholestasis (DIC) assay: urea formation in sandwich-cultured human hepatocytes with and without the bile salt mixture; settings: lowest in vitro concentration with DICI < 0.78 / Cmax,total; for DICI-based SM obtained with the ‘original’ LOAEL method 24 h: 24 h incubation; for DICI-based SM obtained with the ‘original’ LOAEL method 48 h: 48 h incubation
From the text: Drug-induced cholestasis (DIC) is a major cause of attrition during drug development and post-marketing withdrawal. Early detection of DIC is crucial for avoiding financial losses and improving drug safety. Preclinical assays for DIC detection often rely on evaluation of the test compound towards individual cellular targets such as their inhibitory potential towards the bile salt export pump (BSEP) by using BSEP membrane vesicles. However, the underlying mechanisms of DIC development are more complex involving multiple other transporters and nuclear receptors. A more comprehensive in vitro model such as sandwich-cultured human hepatocytes (SCHH) are more suited due to the presence of metabolizing enzymes and transporters relevant to bile salt disposition. The assay described here relies on changes in the ability of SCHH to produce urea from ammonia in the absence and presence of a (patho-)physiologically relevant bile salt mixture. Ammonia is detoxified in the hepatocyte by the urea cycle to form non-toxic urea. Measuring changes in urea production allows for the quantitative evaluation of the hepatocyte's biochemical and functional integrity. The colorimetric quantitation of urea formation is based on the reaction between urea and diacetylmonoxime.
By determining the ratio of urea formation after incubation with test compound in absence and in presence of the bile salt mixture, the DIC index (DICI) value can be calculated. […] It was previously established that a compound with a SM below 30 can be considered to display increased risk for causing cholestasis in the clinic.
If longer incubations are required (e.g. 48 h), the medium is changed again after 24 h (day 6) with fresh medium containing the same initial concentrations of test compound and bile salts as 24 h before.
• Solution 1: culture medium with no compound and 0.2% DMSO. […] This solution should be filtered through a 0.2 µm filter and prewarmed for 30 min at 37°C. • Solution 4: culture medium with double concentrated test compound. […] This solution should be filtered through a 0.2 µm filter and prewarmed for 30 min at 37°C. • Solution 5: control medium with bile salts, prepared by mixing solution 1 and solution 2 in a 1:1 ratio. • Solution 6: culture medium with positive control without bile salts, prepared by mixing solution 1 and solution 3 in a 1:1 ratio. • Solution 7: culture medium with positive control with bile salts, prepared by mixing solution 2 and solution 3 in a 1:1 ratio. • Solution 8: culture medium with test compound without bile salts, prepared by mixing solution 1 and solution 4 in a 1:1 ratio. • Solution 9: culture medium with test compound with bile salts, prepared by mixing solution 2 and solution 4 in a 1:1 ratio.
• 1. On day 5, aspirate the medium and preincubate the cells with solution 1, solution 6 or solution 8 for 2 h. Note: this preincubation step is performed to enable the compounds to interact with the cellular machinery. • 2. After 2 h, aspirate the medium and immediately incubate the cells with solution 1, solution 5, solution 6, solution 7, solution 8 or solution 9 for 22 h.
The urea assay is performed on day 6 or day 7 for 24 h and 48 h incubations, respectively.
• Solutions for the color reagent. […] Note: perform this procedure on ice as this is an exothermic reaction. Wear appropriate protective gear. • ○ Solution B prepared by mixing the thiosemicarbazide solution and the diacetyl monoxime in a 1:1 ratio. • Incubation buffer: HBSS containing 10 mM HEPES, 2 mM glutamine, 10 mM ammonium chloride and 3 mM ornithine, filtered through a 0.2 µm filter and prewarmed at 37°C. • 96-well thermostable plate with aluminum cover slip.
• 1. Aspirate the culture medium. • 2. Wash the wells twice with 250 µL prewarmed incubation buffer. Aspirate the remaining buffer. • 3. Add 125 µL prewarmed incubation buffer to each well and keep the plate at 37°C for 1 h. • 4.

CCOC(=O)CN[C@@H](C(=O)N1CC[C@H]1C(=O)NCc1ccc(/C(N)=N\O)cc1)C1CCCCC1 [Ximelagatran, ximelagatran]
DICI 24 h Mean ([1]; 25 µM test compound): 0.85
DICI 48 h Mean ([1]; 25 µM test compound): 0.95
DICI 24 h Mean ([1]; 50 µM test compound): 0.95
DICI 48 h Mean ([1]; 50 µM test compound): 0.93
DICI 24 h Mean ([1]; 150 µM test compound): 1.02
DICI 48 h Mean ([1]; 150 µM test compound): 1.05
Cmax,total [2]: 300 nM
DICI-based SM obtained with the ‘original’ LOAEL method 24 h [3]: 500
DICI-based SM obtained with the ‘original’ LOAEL method 48 h [3]: 500

CCC(=O)O[C@@H]1CC(=O)O[C@H](C)C/C=C/C=C/[C@H](O)[C@H](C)C[C@H](CC=O)[C@H](O[C@@H]2O[C@H](C)[C@@H](O[C@H]3C[C@@](C)(O)[C@@H](OC(=O)CC)[C@H](C)O3)[C@H](N(C)C)[C@H]2O)[C@H]1OC [Midecamycin, midecamycin]
DICI 24 h Mean ([1]; 100 µM test compound): 0.71
DICI 48 h Mean ([1]; 100 µM test compound): 1.07
Cmax,total [2]: 2000 nM
DICI-based SM obtained with the ‘original’ LOAEL method 24 h [3]: 50
DICI-based SM obtained with the ‘original’ LOAEL method 48 h [3]: 50

O=C1CC2(CCCC2)CC(=O)N1CCCCN1CCN(c2ncccn2)CC1 [Buspirone, buspirone]
DICI 24 h Mean ([1]; 0.5 µM test compound): 0.69
DICI 48 h Mean ([1]; 0.5 µM test compound): 0.82
DICI 24 h Mean ([1]; 1 µM test compound): 0.87
DICI 48 h Mean ([1]; 1 µM test compound): 0.90
DICI 24 h Mean ([1]; 5 µM test compound): 0.74
DICI 48 h Mean ([1]; 5 µM test compound): 0.95
DICI 24 h Mean ([1]; 10 µM test compound): 0.82
DICI 48 h Mean ([1]; 10 µM test compound): 0.95
DICI 24 h Mean ([1]; 25 µM test compound): 0.84
DICI 48 h Mean ([1]; 25 µM test compound): 0.71
DICI 24 h Mean ([1]; 50 µM test compound): 0.68
DICI 48 h Mean ([1]; 50 µM test compound): 0.48
DICI 24 h Mean ([1]; 150 µM test compound): 0.53
DICI 48 h Mean ([1]; 150 µM test compound): 0.37
Cmax,total [2]: 10 nM
DICI-based SM obtained with the ‘original’ LOAEL method 24 h [3]: 5000
DICI-based SM obtained with the ‘original’ LOAEL method 48 h [3]: 15000

CC[C@H]1OC(=O)[C@H](C)[C@@H](O[C@H]2C[C@@](C)(OC)[C@@H](O)[C@H](C)O2)[C@H](C)[C@@H](O[C@@H]2O[C@H](C)C[C@H](N(C)C)[C@H]2O)[C@](C)(O)C[C@@H](C)C(=O)[C@H](C)[C@@H](O)[C@]1(C)O [Erythromycin, erythromycin]
DICI 24 h Mean ([1]; 50 µM test compound): 0.94
DICI 24 h Mean ([1]; 100 µM test compound): 1.29
DICI 24 h Mean ([1]; 200 µM test compound): 1.42
Cmax,total [2]: 3970 nM
DICI-based SM obtained with the ‘original’ LOAEL method 24 h [3]: 50.38

O=c1[nH]c(=O)n([C@@H]2O[C@H](CO)[C@@H](O)[C@@H]2F)cc1I [Fialuridine, fialuridine]
DICI 24 h Mean ([1]; 10 µM test compound): 0.88
DICI 48 h Mean ([1]; 10 µM test compound): 0.92
DICI 24 h Mean ([1]; 20 µM test compound): 0.94
DICI 48 h Mean ([1]; 20 µM test compound): 0.79
DICI 24 h Mean ([1]; 30 µM test compound): 0.95
DICI 48 h Mean ([1]; 30 µM test compound): 1.26
DICI 24 h Mean ([1]; 50 µM test compound): 0.79
DICI 48 h Mean ([1]; 50 µM test compound): 1.19
DICI 24 h Mean ([1]; 100 µM test compound): 1.12
DICI 48 h Mean ([1]; 100 µM test compound): 0.89
DICI 24 h Mean ([1]; 300 µM test compound): 0.82
DICI 48 h Mean ([1]; 300 µM test compound): 0.96
Cmax,total [2]: 640 nM
DICI-based SM obtained with the ‘original’ LOAEL method 24 h [3]: 468.75
